Experimental data reported in the supplement of paper PMC10307832.

How the values were obtained:
Test in all cases: relative viability (nuclei count vs DMSO), 5 days (fraction); higher = more cells survive
[1] = compound: NC(=O)[C@@H](CCC(F)(F)F)N(Cc1ccc(-c2ncon2)cc1F)S(=O)(=O)c1ccc(Cl)cc1 [Avagacestat] + C[C@@H](Oc1cc(-c2cnn(C3CCNCC3)c2)cnc1N)c1c(Cl)ccc(F)c1Cl [Crizotinib] (partner 1 µM)
In short: (§1)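 Dosing by pin tool came one day after lung cancer cell lines were seeded in 1536-well plates, using either one drug or a fixed anchor-drug dose plus five library-drug doses (not always all listed) in √10 steps. After 5 days, nuclei were counted on 4× images. Relative viability is treated-well nuclei count divided by vehicle-well nuclei count, and values are medians of duplicate plates.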

[2] = compound: NC(=O)[C@@H](CCC(F)(F)F)N(Cc1ccc(-c2ncon2)cc1F)S(=O)(=O)c1ccc(Cl)cc1 [Avagacestat] + CS(=O)(=O)CCNCc1ccc(-c2ccc3ncnc(Nc4ccc(OCc5cccc(F)c5)c(Cl)c4)c3c2)o1 [Lapatinib] (partner 2 µM)
In short: as §1

[3] = compound: NC(=O)[C@@H](CCC(F)(F)F)N(Cc1ccc(-c2ncon2)cc1F)S(=O)(=O)c1ccc(Cl)cc1 [Avagacestat] + Cc1nc(Nc2ncc(C(=O)Nc3c(C)cccc3Cl)s2)cc(N2CCN(CCO)CC2)n1 [Dasatinib] (partner 0.075 µM)
In short: as §1

[4] = compound: NC(=O)[C@@H](CCC(F)(F)F)N(Cc1ccc(-c2ncon2)cc1F)S(=O)(=O)c1ccc(Cl)cc1 [Avagacestat] + Nc1nc2[nH]cc(CCc3ccc(C(=O)N[C@@H](CCC(=O)O)C(=O)O)cc3)c2c(=O)[nH]1 [Pemetrexed] (partner 0.2 µM)
In short: as §1

NCI-H1650 gave a relative viability ([1]; first compound 0.08 µM) of 1.07, a relative viability ([1]; first compound 0.253 µM) of 0.967 and a relative viability ([1]; first compound 0.8 µM) of 1.37. The relative viability ([1]; first compound 2.53 µM) was 0.916, the relative viability ([1]; first compound 8 µM) was 1.06 and the relative viability ([2]; first compound 0.08 µM) was 1.02. It also gave a relative viability ([2]; first compound 0.253 µM) of 0.825, a relative viability ([2]; first compound 0.8 µM) of 0.695 and a relative viability ([2]; first compound 2.53 µM) of 0.884. It also gave a relative viability ([2]; first compound 8 µM) of 0.853, a relative viability ([3]; first compound 0.08 µM) of 0.37 and a relative viability ([3]; first compound 0.253 µM) of 0.35. It also gave a relative viability ([3]; first compound 0.8 µM) of 0.272, a relative viability ([3]; first compound 2.53 µM) of 0.304 and a relative viability ([3]; first compound 8 µM) of 0.346. The relative viability ([4]; first compound 0.08 µM) was 0.357, the relative viability ([4]; first compound 0.253 µM) was 0.387 and the relative viability ([4]; first compound 0.8 µM) was 0.365. For the same cell line, the relative viability ([4]; first compound 2.53 µM) was 0.381 and the relative viability ([4]; first compound 8 µM) was 0.382.

NCI-H1355 was tested, and the relative viability ([1]; first compound 0.08 µM) was 1.19, the relative viability ([1]; first compound 0.253 µM) was 1.14 and the relative viability ([1]; first compound 0.8 µM) was 0.997. For the same cell line, the relative viability ([1]; first compound 2.53 µM) was 0.872, the relative viability ([1]; first compound 8 µM) was 0.866 and the relative viability ([2]; first compound 0.08 µM) was 1.24. For the same cell line, the relative viability ([2]; first compound 0.253 µM) was 1.15, the relative viability ([2]; first compound 0.8 µM) was 1.1 and the relative viability ([2]; first compound 2.53 µM) was 0.926. For the same cell line, the relative viability ([2]; first compound 8 µM) was 0.871, the relative viability ([3]; first compound 0.08 µM) was 0.688 and the relative viability ([3]; first compound 0.253 µM) was 0.754. The relative viability ([3]; first compound 0.8 µM) was 0.687, the relative viability ([3]; first compound 2.53 µM) was 0.557 and the relative viability ([3]; first compound 8 µM) was 0.62. It also gave a relative viability ([4]; first compound 0.08 µM) of 1.15, a relative viability ([4]; first compound 0.253 µM) of 1.15 and a relative viability ([4]; first compound 0.8 µM) of 1.21. For the same cell line, the relative viability ([4]; first compound 2.53 µM) was 0.996 and the relative viability ([4]; first compound 8 µM) was 0.943.

Cell Line HOP-62 has a relative viability ([1]; first compound 0.08 µM) of 0.936, a relative viability ([1]; first compound 0.253 µM) of 1.08 and a relative viability ([1]; first compound 0.8 µM) of 0.995. For the same cell line, the relative viability ([1]; first compound 2.53 µM) was 1.05, the relative viability ([1]; first compound 8 µM) was 1.03 and the relative viability ([2]; first compound 0.08 µM) was 1.02. The relative viability ([2]; first compound 0.253 µM) was 0.943, the relative viability ([2]; first compound 0.8 µM) was 0.983 and the relative viability ([2]; first compound 2.53 µM) was 0.996. It also gave a relative viability ([2]; first compound 8 µM) of 1.01, a relative viability ([3]; first compound 0.08 µM) of 0.701 and a relative viability ([3]; first compound 0.253 µM) of 0.63. The relative viability ([3]; first compound 0.8 µM) was 0.626, the relative viability ([3]; first compound 2.53 µM) was 0.502 and the relative viability ([3]; first compound 8 µM) was 0.484. The relative viability ([4]; first compound 0.08 µM) was 0.344, the relative viability ([4]; first compound 0.253 µM) was 0.359 and the relative viability ([4]; first compound 0.8 µM) was 0.329. It also gave a relative viability ([4]; first compound 2.53 µM) of 0.312 and a relative viability ([4]; first compound 8 µM) of 0.29.

NCI-H23 gave a relative viability ([1]; first compound 0.08 µM) of 0.547, a relative viability ([1]; first compound 0.253 µM) of 0.473 and a relative viability ([1]; first compound 0.8 µM) of 0.627. It also gave a relative viability ([1]; first compound 2.53 µM) of 0.471, a relative viability ([1]; first compound 8 µM) of 0.345 and a relative viability ([2]; first compound 0.08 µM) of 1.61. It also gave a relative viability ([2]; first compound 0.253 µM) of 1.29, a relative viability ([2]; first compound 0.8 µM) of 1.17 and a relative viability ([2]; first compound 2.53 µM) of 1.05. The relative viability ([2]; first compound 8 µM) was 1.32, the relative viability ([3]; first compound 0.08 µM) was 0.859 and the relative viability ([3]; first compound 0.253 µM) was 0.875. For the same cell line, the relative viability ([3]; first compound 0.8 µM) was 0.937, the relative viability ([3]; first compound 2.53 µM) was 0.733 and the relative viability ([3]; first compound 8 µM) was 0.912. The relative viability ([4]; first compound 0.08 µM) was 0.966, the relative viability ([4]; first compound 0.253 µM) was 0.863 and the relative viability ([4]; first compound 0.8 µM) was 0.905. It also gave a relative viability ([4]; first compound 2.53 µM) of 0.801 and a relative viability ([4]; first compound 8 µM) of 0.31.

In the case of NCI-H2170, the relative viability ([1]; first compound 0.08 µM) is reported as 1.27, the relative viability ([1]; first compound 0.253 µM) is reported as 1.59 and the relative viability ([1]; first compound 0.8 µM) is reported as 1.2. The relative viability ([1]; first compound 2.53 µM) was 1.38, the relative viability ([1]; first compound 8 µM) was 0.976 and the relative viability ([2]; first compound 0.08 µM) was 0.297. The relative viability ([2]; first compound 0.253 µM) was 0.265, the relative viability ([2]; first compound 0.8 µM) was 0.291 and the relative viability ([2]; first compound 2.53 µM) was 0.275. For the same cell line, the relative viability ([2]; first compound 8 µM) was 0.296, the relative viability ([3]; first compound 0.08 µM) was 0.622 and the relative viability ([3]; first compound 0.253 µM) was 0.535. For the same cell line, the relative viability ([3]; first compound 0.8 µM) was 0.647, the relative viability ([3]; first compound 2.53 µM) was 0.48 and the relative viability ([3]; first compound 8 µM) was 0.52. The relative viability ([4]; first compound 0.08 µM) was 0.258, the relative viability ([4]; first compound 0.253 µM) was 0.268 and the relative viability ([4]; first compound 0.8 µM) was 0.23. It also gave a relative viability ([4]; first compound 2.53 µM) of 0.274 and a relative viability ([4]; first compound 8 µM) of 0.261.

EMC-BAC-2 gave a relative viability ([1]; first compound 0.08 µM) of 0.797, a relative viability ([1]; first compound 0.253 µM) of 0.844 and a relative viability ([1]; first compound 0.8 µM) of 0.766. The relative viability ([1]; first compound 2.53 µM) was 0.704, the relative viability ([1]; first compound 8 µM) was 0.719 and the relative viability ([2]; first compound 0.08 µM) was 0.978. It also gave a relative viability ([2]; first compound 0.253 µM) of 0.956, a relative viability ([2]; first compound 0.8 µM) of 1.02 and a relative viability ([2]; first compound 2.53 µM) of 0.954. For the same cell line, the relative viability ([2]; first compound 8 µM) was 0.841, the relative viability ([3]; first compound 0.08 µM) was 0.342 and the relative viability ([3]; first compound 0.253 µM) was 0.298. It also gave a relative viability ([3]; first compound 0.8 µM) of 0.301, a relative viability ([3]; first compound 2.53 µM) of 0.292 and a relative viability ([3]; first compound 8 µM) of 0.308. For the same cell line, the relative viability ([4]; first compound 0.08 µM) was 0.52, the relative viability ([4]; first compound 0.253 µM) was 0.595 and the relative viability ([4]; first compound 0.8 µM) was 0.634. For the same cell line, the relative viability ([4]; first compound 2.53 µM) was 0.557 and the relative viability ([4]; first compound 8 µM) was 0.544.

In the case of NCI-H2347, the relative viability ([1]; first compound 0.08 µM) is reported as 0.693, the relative viability ([1]; first compound 0.253 µM) is reported as 0.74 and the relative viability ([1]; first compound 0.8 µM) is reported as 0.692. The relative viability ([1]; first compound 2.53 µM) was 0.511, the relative viability ([1]; first compound 8 µM) was 0.66 and the relative viability ([2]; first compound 0.08 µM) was 0.997. The relative viability ([2]; first compound 0.253 µM) was 0.966, the relative viability ([2]; first compound 0.8 µM) was 1.04 and the relative viability ([2]; first compound 2.53 µM) was 0.923. It also gave a relative viability ([2]; first compound 8 µM) of 0.909, a relative viability ([3]; first compound 0.08 µM) of 0.292 and a relative viability ([3]; first compound 0.253 µM) of 0.292. It also gave a relative viability ([3]; first compound 0.8 µM) of 0.369, a relative viability ([3]; first compound 2.53 µM) of 0.297 and a relative viability ([3]; first compound 8 µM) of 0.331. For the same cell line, the relative viability ([4]; first compound 0.08 µM) was 0.426, the relative viability ([4]; first compound 0.253 µM) was 0.454 and the relative viability ([4]; first compound 0.8 µM) was 0.447. It also gave a relative viability ([4]; first compound 2.53 µM) of 0.465 and a relative viability ([4]; first compound 8 µM) of 0.406.

For SW 1573, the relative viability ([1]; first compound 0.08 µM) was 0.844, the relative viability ([1]; first compound 0.253 µM) was 0.905 and the relative viability ([1]; first compound 0.8 µM) was 0.777. For the same cell line, the relative viability ([1]; first compound 2.53 µM) was 0.816, the relative viability ([1]; first compound 8 µM) was 0.709 and the relative viability ([2]; first compound 0.08 µM) was 1.19. For the same cell line, the relative viability ([2]; first compound 0.253 µM) was 1.21, the relative viability ([2]; first compound 0.8 µM) was 0.982 and the relative viability ([2]; first compound 2.53 µM) was 1.1. The relative viability ([2]; first compound 8 µM) was 1.09, the relative viability ([3]; first compound 0.08 µM) was 0.515 and the relative viability ([3]; first compound 0.253 µM) was 0.593. It also gave a relative viability ([3]; first compound 0.8 µM) of 0.523, a relative viability ([3]; first compound 2.53 µM) of 0.565 and a relative viability ([3]; first compound 8 µM) of 0.279. It also gave a relative viability ([4]; first compound 0.08 µM) of 0.99, a relative viability ([4]; first compound 0.253 µM) of 1.01 and a relative viability ([4]; first compound 0.8 µM) of 0.925. It also gave a relative viability ([4]; first compound 2.53 µM) of 0.887 and a relative viability ([4]; first compound 8 µM) of 0.85.
